In patent US9555038B2, “Heterocycle-substituted tetracyclic compounds and methods of use thereof for the treatment of viral diseases” (Merck Sharp & Dohme Corp., priority 2013, dated 2017):
Like-named read-outs stand apart in the source and are kept apart here.

Columns and labels:
HCV replicon 2B = test: Cell-based HCV Replicon Assay A, replicon 2B
Protocol: (§1) To measure cell-based anti-HCV activity of compounds of the present invention, two complimentary assays were employed using various replicons. In the first assay (“Replicon Assay A”), replicon cells were seeded at 2000 cells/well in 384-well 384-well flat bottom tissue culture treated clear bottom plate (Corning 3707) in the presence of the test compound. Various concentrations of test compound, typically in 10 serial dilutions, were added to the assay mixture, with the starting concentration ranging from 333.3 nM to […]. The final concentration of DMSO was 0.5%. Fetal bovine serum was 5%, in the assay media. Cells were harvested on day 3 by removing media and washing the cells with a suitable wash buffer. The cells are lysed with the addition of 1× Qiagen lysis buffer (Cat #1062731). The replicon RNA level was measured using real time PCR (TaqMan® EZ RT-PCR, Applied Biosystems 403028) with the following primers and probes: […]
(§2) Cyclophilin RNA was used as endogenous control and was amplified in the same reaction as NS5B (multiplex PCR). The real-time RT-PCR reactions were run on ABI PRISM 7900HT Sequence Detection System using the following program: 50° C. for 2 minutes, 60° C. for 30 minutes, 95° C. for 5 minutes, 40 cycles of 94° C. for 20 sec, 55° C. for 1 minutes.
(§3) The amount of HCV replicon RNA per cell is quantified using a linear regression curve for a known nanogram (ng) amount of HCV replicon total RNA. This is established by plotting the Cycle Threshold values (Ct) from the Neo probe and primer set versus the log (ng) for each HCV replicon total RNA standard. The amount of HCV RNA for each replicon sample is calculated by taking the sample's Ct value, minus the line intercept, divided by the slope of the line. Similarly, the amount of Cyclophilin mRNA per cell is also quantified using a linear regression curve for a known nanogram (ng) amount of HCV replicon total RNA. Again, this is established by plotting the Cycle Threshold values (Ct) from the Cyclophilin probe and primer set versus the log (ng) for each HCV replicon total RNA standard.
(§4) Data was obtained for various compounds of the present invention using the methods described in the Example above, and is presented in the table immediately below. Data for replicons 1A, 1AY93H and 2B were obtained using Replicon Assay A and data for replicons 1AQ30D and 1B were obtained using Replicon Assay B.

HCV replicon 1AY93H = test: Cell-based HCV Replicon Assay A, replicon 1AY93H
Protocol: as §1, §2, §3, §4

HCV replicon 1A = test: Cell-based HCV Replicon Assay A, replicon 1A
Protocol: as §1, §2, §3, §4

[1] = Hepatitis C virus, read-out: 2B IC50 (nM), replicon 2B
[2] = Hepatitis C virus, read-out: 1A Y93H IC50 (nM), replicon 1AY93H
[3] = read-out: 1A Y93H IC50, replicon 1AY93H

Row | SMILES | IC50 (HCV replicon 2B; [1]) [nM] | IC50 (HCV replicon 1AY93H; [2]) [nM] | IC50 (HCV replicon 1A; Hepatitis C virus) [nM] | IC50 (HCV replicon 2B; read-out: 2B IC50, replicon 2B) [nM] | IC50 (HCV replicon 1AY93H; [3]) [nM] | IC50 (HCV replicon 1A) [nM] | IC50 (HCV replicon 1AY93H; replicon 1AY93H, read-out: 1A Y93H IC50) [nM]
1 | COC(=O)N[C@H](C(=O)C1CCC[C@H]1c1ncc(-c2ccc3c(c2)cc2n3C(c3cnc(CC(C)C)s3)Oc3cc(-c4cnc([C@@H]5CCCN5C(=O)[C@@H](NC(=O)OC)C(C)C)[nH]4)cc(F)c3-2)[nH]1)C(C)C (mixture of isomers) [Compound 403] | 0.142 | 0.016 | 0.0064 |  |  |  | 
2 | CCN(CC)c1ncc(C2Oc3cc(-c4cnc([C@@H]5CCCN5C(=O)[C@@H](NC(=O)OC)C(C)C)[nH]4)cc(F)c3-c3cc4cc(-c5cnc([C@@H]6CCCN6C(=O)[C@@H](NC(=O)OC)C(C)C)[nH]5)ccc4n32)s1 (mixture of isomers) [Compound 404] | 0.206 | 0.0386 | 0.012 |  |  |  | 
3 | COC(=O)N[C@H](C(=O)N1CCC[C@H]1c1ncc(-c2cc(F)c3c(c2)OC(c2cn4ccnc4s2)n2c-3cc3cc(-c4cnc([C@@H]5CCCN5C(=O)[C@@H](NC(=O)OC)C(C)C)[nH]4)ccc32)[nH]1)C(C)C (mixture of isomers) [Compound 417] | 0.453 | 0.996 | 0.0031 |  |  |  | 
4 | COC(=O)N[C@H](C(=O)N1CCC[C@H]1c1ncc(-c2cc(F)c3c(c2)OC(c2cnc(-c4cnn(C)c4)s2)n2c-3cc3cc(-c4cnc([C@@H]5CCCN5C(=O)[C@@H](NC(=O)OC)C(C)C)[nH]4)ccc32)[nH]1)C(C)C (mixture of isomers) [Compound 425] | 1.78 | 0.534 | 0.0069 |  |  |  | 
5 | COC(=O)N[C@H](C(=O)N1CCC[C@H]1c1ncc(-c2cc(F)c3c(c2)OC(c2ncc(C4CC4)s2)n2c-3cc3cc(-c4cnc([C@@H]5CCCN5C(=O)[C@@H](NC(=O)OC)C(C)C)[nH]4)ccc32)[nH]1)C(C)C (single isomer, unassigned) [Compound 7] |  |  | 0.0014 | 2.14 | 4.23 |  | 
6 | COC(=O)N[C@H](C(=O)N1CCC[C@H]1c1ncc(-c2cc(F)c3c(c2)OC(c2ncc(C4CC4)s2)n2c-3cc3cc(-c4cnc([C@@H]5CCCN5C(=O)[C@@H](NC(=O)OC)C(C)C)[nH]4)ccc32)[nH]1)C(C)C (single isomer, unassigned) [Compound 8] |  |  |  | 0.14 | 0.15 | 0.0017 | 
7 | COC(=O)N[C@H](C(=O)N1CCC[C@H]1c1ncc(-c2cc(F)c3c(c2)OC(c2cnc(C4CC4)s2)n2c-3cc3cc(-c4cnc([C@@H]5CCCN5C(=O)[C@@H](NC(=O)OC)C(C)C)[nH]4)ccc32)[nH]1)C(C)C (single isomer, unassigned) [Compound 9] |  |  | 0.0016 | 1.56 | 0.86 |  | 
8 | COC(=O)N[C@H](C(=O)N1CCC[C@H]1c1ncc(-c2cc(F)c3c(c2)OC(c2cnc(OC)s2)n2c-3cc3cc(-c4cnc([C@@H]5CCCN5C(=O)[C@@H](NC(=O)OC)C(C)C)[nH]4)ccc32)[nH]1)C(C)C (single isomer, unassigned) [Compound 13] |  |  | 0.0011 | 0.446 | 0.621 |  | 
9 | COC(=O)NC(C(=O)N1CCC[C@H]1c1ncc(-c2ccc3c(c2)cc2n3C(c3cnc(C)s3)Oc3cc(-c4cnc([C@@H]5CCCN5C(=O)[C@@H](NC(=O)OC)C(C)C)[nH]4)cc(F)c3-2)[nH]1)C1C[C@@H](C)O[C@@H](C)C1 (single isomer, unassigned) [Compound 29] |  |  | 0.002 | 0.192 | 1.09 |  | 
10 | COC(=O)N[C@H](C(=O)N1CCC[C@H]1c1ncc(-c2cc(F)c3c(c2)OC(c2cnc(-c4ccc(F)cc4)s2)n2c-3cc3cc(-c4cnc([C@@H]5CCCN5C(=O)[C@@H](NC(=O)OC)C(C)C)[nH]4)ccc32)[nH]1)C(C)C (single isomer, unassigned) [Compound 32] |  |  |  | 0.231 | 0.344 | 0.0012 | 
11 | CCc1ncc(C2Oc3cc(-c4cnc([C@@H]5CCCN5C(=O)[C@@H](NC(=O)OC)C(C)C)[nH]4)cc(F)c3-c3cc4cc(-c5cnc([C@@H]6CCCN6C(=O)C(NC(=O)OC)C6C[C@@H](C)O[C@@H](C)C6)[nH]5)ccc4n32)s1 (single isomer, unassigned) [Compound 35] |  |  | 0.0026 | 0.125 | 0.161 |  | 
12 | CCc1ncc(C2Oc3cc(-c4cnc([C@@H]5CCCN5C(=O)[C@@H](NC(=O)OC)C(C)C)[nH]4)cc(F)c3-c3cc4cc(-c5cnc([C@@H]6CCCN6C(=O)C(NC(=O)OC)C6CCOC(C)(C)C6)[nH]5)ccc4n32)s1 (single isomer, unassigned) [Compound 37] |  |  | 0.0022 | 0.226 | 0.257 |  | 
13 | CCc1ncc(C2Oc3cc(-c4cnc([C@@H]5CCCN5C(=O)[C@@H](NC(=O)OC)C(C)C)[nH]4)cc(F)c3-c3cc4cc(-c5cnc([C@@H]6CCCN6C(=O)C(NC(=O)OC)C6CCOC(C)(C)C6)[nH]5)ccc4n32)s1 (single isomer, unassigned) [Compound 39] |  |  |  | 0.004 | 0.0112 | 0.0037 | 
14 | COC(=O)N[C@H](C(=O)N1CCC[C@H]1c1ncc(-c2cc(F)c3c(c2)OC(c2cnc(-c4ccc(Cl)cc4)s2)n2c-3cc3cc(-c4cnc([C@@H]5CCCN5C(=O)[C@@H](NC(=O)OC)C(C)C)[nH]4)ccc32)[nH]1)C(C)C (single isomer, unassigned) [Compound 54] |  |  |  | 0.248 | 0.429 | 0.0013 | 
15 | COC(=O)NC(C(=O)N1CCC[C@H]1c1ncc(-c2ccc3c(c2)cc2n3C(c3cnc(C(C)C)s3)Oc3cc(-c4cnc([C@@H]5CCCN5C(=O)[C@@H](NC(=O)OC)C(C)C)[nH]4)cc(F)c3-2)[nH]1)C1C[C@@H](C)O[C@@H](C)C1 (single isomer, unassigned) [Compound 56] |  |  | 0.0011 | 0.104 | 0.285 |  | 
16 | CCCc1ncc(C2Oc3cc(-c4cnc([C@@H]5CCCN5C(=O)[C@@H](NC(=O)OC)C(C)C)[nH]4)cc(F)c3-c3cc4cc(-c5cnc([C@@H]6CCCN6C(=O)C(NC(=O)OC)C6CCOC(C)(C)C6)[nH]5)ccc4n32)s1 (single isomer, unassigned) [Compound 58] |  |  | 0.0026 | 0.003 | 0.0086 |  | 
17 | COC(=O)NC(C(=O)N1CCC[C@H]1c1ncc(-c2ccc3c(c2)cc2n3C(c3cnc(C(C)C)s3)Oc3cc(-c4cnc([C@@H]5CCCN5C(=O)[C@@H](NC(=O)OC)C(C)C)[nH]4)cc(F)c3-2)[nH]1)C1CCOC(C)(C)C1 (single isomer, unassigned) [Compound 62] |  | 0.212 |  | 0.427 |  | 0.0018 | 
18 | COC(=O)NC(C(=O)N1CCC[C@H]1c1ncc(-c2ccc3c(c2)cc2n3C(c3cnc(C(C)C)s3)Oc3cc(-c4cnc([C@@H]5CCCN5C(=O)[C@@H](NC(=O)OC)C(C)C)[nH]4)cc(F)c3-2)[nH]1)C1CCOC(C)(C)C1 (single isomer, unassigned) [Compound 63] |  |  |  | 1.67 | 0.254 | 0.0483 | 
19 | COC(=O)NC(C(=O)N1[C@@H]2C[C@@H]2C[C@H]1c1ncc(-c2ccc3c(c2)cc2n3C(c3ncc(C4CC4)s3)Oc3cc(-c4cnc([C@@H]5CCCN5C(=O)[C@@H](NC(=O)OC)C(C)C)[nH]4)cc(F)c3-2)[nH]1)C1C[C@@H](C)O[C@@H](C)C1 (single isomer, unassigned) [Compound 64] |  |  | 0.0012 | 0.268 | 0.159 |  | 
20 | COC(=O)NC(C(=O)N1[C@@H]2C[C@@H]2C[C@H]1c1ncc(-c2ccc3c(c2)cc2n3C(c3cnc(C(C)C)s3)Oc3cc(-c4cnc([C@@H]5CCCN5C(=O)[C@@H](NC(=O)OC)C(C)C)[nH]4)cc(F)c3-2)[nH]1)C1CCOC(C)(C)C1 (single isomer, unassigned) [Compound 68] | 0.253 |  |  |  | 0.0996 | 0.0014 | 
21 | COC(=O)NC(C(=O)N1CCC[C@H]1c1ncc(-c2ccc3c(c2)cc2n3C(c3nc(C(F)(F)F)cs3)Oc3cc(-c4cnc([C@@H]5CCCN5C(=O)[C@@H](NC(=O)OC)C(C)C)[nH]4)cc(F)c3-2)[nH]1)C1C[C@@H](C)O[C@@H](C)C1 (single isomer, unassigned) [Compound 75] |  |  | 0.0022 | 0.491 | 0.875 |  | 
22 | CCc1nnc(C2Oc3cc(-c4cnc([C@@H]5CCCN5C(=O)[C@@H](NC(=O)OC)C(C)C)[nH]4)cc(F)c3-c3cc4cc(-c5cnc([C@@H]6CCCN6C(=O)C(NC(=O)OC)C(C)C)[nH]5)ccc4n32)s1 (single isomer, unassigned) [Compound 115] |  | 0.79 |  |  |  | 0.008 | 
23 | COC(=O)N[C@H](C(=O)N1CCC[C@H]1c1ncc(-c2cc(F)c3c(c2)OC(c2cnc(CC(C)(C)C)s2)n2c-3cc3cc(-c4cnc([C@@H]5CCCN5C(=O)[C@@H](NC(=O)OC)C(C)C)[nH]4)ccc32)[nH]1)C(C)C (single isomer, unassigned) [Compound 523] |  |  |  |  |  | 0.0012 | 0.13
